Data from ChEMBL document CHEMBL4828776, “Acremopeptaibols A-F, 16-Residue Peptaibols from the Sponge-Derived Acremonium sp. IMB18-086 Cultivated with Heat-Killed Pseudomonas aeruginosa” (J Nat Prod, 2021).
Converted amounts (≈) assume the structure as drawn. Non-standard residues stand in square brackets, D forms with d. Residues, ends and D or L forms follow the SMILES beside them. Hyp = O=C(O)[C@@H]1C[C@@H](O)CN1; Phe(ol) = N[C@H](CO)Cc1ccccc1; Aib = CC(C)(N)C(=O)O

How the values were obtained:
Candida albicans = assay: Antifungal activity against Candida albicans ATCC 10231 assessed as inhibition of fungal growth incubated for 16 hrs by microdilution method; assay type: functional
HepG2 = assay: Cytotoxicity against human HepG2 cells assessed as reduction in cell viability incubated for 48 hrs by CCK8 assay; assay type: functional, cell-based; settings: HepG2, 48 h
A549 = assay: Cytotoxicity against human A549 cells assessed as reduction in cell viability incubated for 48 hrs by CCK8 assay; assay type: functional, cell-based; settings: A549, 48 h
Pseudomonas aeruginosa = assay: Antibacterial activity against Pseudomonas aeruginosa ATCC 27853 assessed as inhibition of bacterial growth incubated for 16 hrs by microdilution method; assay type: functional
Staphylococcus aureus [1] = assay: Antibacterial activity against methicillin-resistant Staphylococcus aureus ATCC 33591 assessed as inhibition of bacterial growth incubated for 16 hrs by microdilution method; assay type: functional
[2] = tested on: Staphylococcus epidermidis; assay: Antibacterial activity against Staphylococcus epidermidis ATCC 12228 assessed as inhibition of bacterial growth incubated for 16 hrs by microdilution method; assay type: functional
Enterococcus faecalis = assay: Antibacterial activity against vancomycin-resistant Enterococcus faecalis 21-07 assessed as inhibition of bacterial growth incubated for 16 hrs by microdilution method; assay type: functional
Escherichia coli = assay: Antibacterial activity against Escherichia coli ATCC 25922 assessed as inhibition of bacterial growth incubated for 16 hrs by microdilution method; assay type: functional
Staphylococcus aureus [3] = assay: Antibacterial activity against Staphylococcus aureus ATCC 29213 assessed as inhibition of bacterial growth incubated for 16 hrs by microdilution method; assay type: functional
Staphylococcus aureus [4] = assay: Antibacterial activity against Staphylococcus aureus ATCC 25923 assessed as inhibition of bacterial growth incubated for 16 hrs by microdilution method; assay type: functional
Bacillus subtilis = assay: Antibacterial activity against Bacillus subtilis ATCC 6633 assessed as inhibition of bacterial growth incubated for 16 hrs by microdilution method; assay type: functional

Row | Molecule | MIC (Candida albicans) [µg/mL] | IC50 (HepG2) [nM] | IC50 (A549) [nM] | MIC (Pseudomonas aeruginosa) [µg/mL] | MIC (Staphylococcus aureus [1]) [µg/mL] | MIC [2] [µg/mL] | MIC (Enterococcus faecalis) [µg/mL] | MIC (Escherichia coli) [µg/mL] | MIC (Staphylococcus aureus [3]) [µg/mL] | MIC (Staphylococcus aureus [4]) [µg/mL] | MIC (Bacillus subtilis) [µg/mL]
1 | CC(/C=C/[C@@]1(C)[C@H](C)CCC(=O)[C@@H]1C)=C\Cc1c(O)c(Cl)c(C)c(C=O)c1O [ASCOCHLORIN] | 4 (≈ 9.88 µM) | 900 | 900 | > 128 | > 128 | 0.25 (≈ 0.617 µM) | > 128 | > 128 | 16 (≈ 39.5 µM) | 1 (≈ 2.47 µM) | 2 (≈ 4.94 µM)
2 | C/C(=C\Cc1c(O)c(Cl)c(C)c(C=O)c1O)CC/C=C(\C)[C@@H]1CC(=O)C(C)(C)O1 [ASCOFURANONE] | 32 (≈ 76 µM) | 900 | 900 | > 128 | 32 (≈ 76 µM) | 4 (≈ 9.5 µM) | > 128 | > 128 | 16 (≈ 38 µM) | 4 (≈ 9.5 µM) | 16 (≈ 38 µM)
3 | COLISTIN |  |  |  | 1 | 128 | 16 | > 128 | 1 | 128 | 64 | 16
4 | CC[C@@](C)(NC(=O)[C@H](CCC(N)=O)NC(=O)C(C)(C)NC(=O)[C@H](Cc1c[nH]c2ccccc12)NC(C)=O)C(=O)NCC(=O)NC(C)(C)C(=O)N[C@@H](C)C(=O)NC(C)(C)C(=O)NC(C)(C)C(=O)NCC(=O)N[C@@H](CCC(N)=O)C(=O)NC(C)(C)C(=O)N1C[C@H](O)C[C@H]1C(=O)NC(C)(C)C(=O)N1CCC[C@H]1C(=O)N[C@H](CO)Cc1ccccc1 | 64 (≈ 39 µM) | ≥ 50000 | ≥ 50000 | > 128 | > 128 | > 128 | > 128 | > 128 | > 128 | > 128 | 64 (≈ 39 µM)
5 | CC(/C=C/[C@@]1(C)[C@H](C)CC[C@@H](O)[C@@H]1C)=C\Cc1c(O)c(Cl)c(C)c(C=O)c1O | > 128 | 900 | 900 | > 128 | > 128 | 16 (≈ 39.3 µM) | > 128 | > 128 | > 128 | 16 (≈ 39.3 µM) | 32 (≈ 78.6 µM)
6 | CC[C@@](C)(NC(=O)CNC(=O)[C@@](C)(CC)NC(=O)[C@H](CCC(N)=O)NC(=O)C(C)(C)NC(=O)[C@H](Cc1c[nH]c2ccccc12)NC(C)=O)C(=O)N[C@@H](C)C(=O)NC(C)(C)C(=O)NC(C)(C)C(=O)NCC(=O)N[C@@H](CCC(N)=O)C(=O)N[C@](C)(CC)C(=O)N1C[C@H](O)C[C@H]1C(=O)NC(C)(C)C(=O)N1CCC[C@H]1C(=O)N[C@H](CO)Cc1ccccc1 | 16 (≈ 9.59 µM) | ≥ 50000 | ≥ 50000 | > 128 | 64 (≈ 38.3 µM) | > 128 | > 128 | > 128 | 32 (≈ 19.2 µM) | 64 (≈ 38.3 µM) | 16 (≈ 9.59 µM)
7 | CC(=O)N[C@@H](Cc1c[nH]c2ccccc12)C(=O)NC(C)(C)C(=O)N[C@@H](CCC(N)=O)C(=O)NC(C)(C)C(=O)NCC(=O)NC(C)(C)C(=O)N[C@@H](C)C(=O)NC(C)(C)C(=O)NC(C)(C)C(=O)NCC(=O)N[C@@H](CCC(N)=O)C(=O)NC(C)(C)C(=O)N1C[C@H](O)C[C@H]1C(=O)NC(C)(C)C(=O)N1CCC[C@H]1C(=O)N[C@H](CO)Cc1ccccc1 (Ac-W[Aib]Q[Aib]G[Aib]A[Aib][Aib]GQ[Aib][Hyp][Aib]P[Phe(ol)]) | > 128 | ≥ 50000 | ≥ 50000 | > 128 | > 128 | > 128 | > 128 | > 128 | > 128 | > 128 | > 128
8 | CN[C@H](CC(C)C)C(=O)N[C@H]1C(=O)N[C@@H](CC(N)=O)C(=O)N[C@H]2C(=O)N[C@H]3C(=O)N[C@H](C(=O)N[C@H](C(=O)O)c4cc(O)cc(O)c4-c4cc3ccc4O)[C@H](O)c3ccc(c(Cl)c3)Oc3cc2cc(c3O[C@@H]2O[C@H](CO)[C@@H](O)[C@H](O)[C@H]2O[C@H]2C[C@](C)(N)[C@H](O)[C@H](C)O2)Oc2ccc(cc2Cl)[C@H]1O [VANCOMYCIN] |  |  |  | > 128 |  |  | 16 (≈ 11 µM) | > 128 |  |  | 0.125 (≈ 0.0863 µM)
9 | CC[C@@](C)(NC(=O)CNC(=O)[C@@](C)(CC)NC(=O)[C@H](CCC(N)=O)NC(=O)C(C)(C)NC(=O)[C@H](Cc1c[nH]c2ccccc12)NC(C)=O)C(=O)N[C@@H](C)C(=O)NC(C)(C)C(=O)NC(C)(C)C(=O)NCC(=O)N[C@@H](CCC(N)=O)C(=O)NC(C)(C)C(=O)N1C[C@H](O)C[C@@H]1C(=O)NC(C)(C)C(=O)N1CCC[C@H]1C(=O)N[C@H](CO)Cc1ccccc1 | 64 (≈ 38.7 µM) | ≥ 50000 | ≥ 50000 | > 128 | > 128 | > 128 | > 128 | > 128 | > 128 | > 128 | > 128
10 | NYSTATIN | > 128 |  |  |  |  |  |  |  |  |  | 
11 | C/C(=C\Cc1c(O)c(Cl)c(C)c(C=O)c1O)[C@H](O)C[C@@]1(C)[C@H](C)CCC(=O)[C@@H]1C | > 128 | 900 | 900 | > 128 | > 128 | > 128 | > 128 | > 128 | > 128 | 128 (≈ 303 µM) | > 128
12 | CC[C@@](C)(NC(=O)[C@H](CCC(N)=O)NC(=O)C(C)(C)NC(=O)[C@H](Cc1c[nH]c2ccccc12)NC(C)=O)C(=O)NCC(=O)NC(C)(C)C(=O)N[C@@H](C)C(=O)NC(C)(C)C(=O)NC(C)(C)C(=O)NCC(=O)N[C@@H](CCC(N)=O)C(=O)N[C@](C)(CC)C(=O)N1C[C@H](O)C[C@H]1C(=O)NC(C)(C)C(=O)N1CCC[C@H]1C(=O)N[C@H](CO)Cc1ccccc1 | 32 (≈ 19.3 µM) | ≥ 50000 | ≥ 50000 | > 128 | 64 (≈ 38.7 µM) | > 128 | > 128 | > 128 | 64 (≈ 38.7 µM) | 64 (≈ 38.7 µM) | 16 (≈ 9.67 µM)
13 | CC[C@@](C)(NC(=O)[C@H](CCC(N)=O)NC(=O)CNC(=O)C(C)(C)NC(=O)C(C)(C)NC(=O)[C@H](C)NC(=O)C(C)(C)NC(=O)CNC(=O)C(C)(C)NC(=O)[C@H](CCC(N)=O)NC(=O)C(C)(C)NC(=O)[C@H](Cc1c[nH]c2ccccc12)NC(C)=O)C(=O)N1C[C@H](O)C[C@H]1C(=O)NC(C)(C)C(=O)N1CCC[C@H]1C(=O)N[C@H](CO)Cc1ccccc1 | 64 (≈ 39 µM) | ≥ 50000 | ≥ 50000 | > 128 | 128 (≈ 78 µM) | > 128 | > 128 | > 128 | 128 (≈ 78 µM) | 128 (≈ 78 µM) | 32 (≈ 19.5 µM)
